Results taken from patent US20090191173A1, “Induction Of Neurogenesis And Stem Cell Therapy In Combination With Copolymer 1” (priority 2004, published 2009).

Tested on: neural progenitor cells (NPCs)
Assay: Neurogenesis from NPCs co-cultured with microglia pre-activated by aggregated Aβ and cytokines
Assay type: cell-based, mouse
Conditions: 10 days; Aβ 5 μM 48 h, cytokines 10 ng/ml
Description: (xx) Reagents. Recombinant mouse IFN-γ and IL-4 (both containing endotoxin at a concentration below 0.1 ng/μg cytokine) were obtained from R&D Systems (Minneapolis, Minn.). β-amyloid peptides [amyloid protein fragment 1-40 and 1-42 (Aβ1-40/1-42)] were purchased from Sigma-Aldrich, St. Louis, Mo. The Aβ peptides were dissolved in endotoxin-free water, and Aβ aggregates were formed by incubation of Aβ, as described (Ishii et al., 2000). (xxv) Neural progenitor cell culture. Coronal sections (2 mm thick) of tissue containing the subventricular zone of the lateral ventricle were obtained from the brains of adult C57B1/6J mice. […] After centrifugation at 110×g for 15 min at room temperature, the tissue was mechanically dissociated by pipette trituration. Cells obtained from single-cell suspensions were plated (3500 cells/cm^2) in 75-cm^2 Falcon tissue-culture flasks (BD Biosciences, San Diego, Calif.), in NPC-culturing medium [Dulbecco's modified Eagles's medium (DMEM)/F12 medium (Gibco/Invitrogen, Carlsbad, Calif.) containing 2 mM L-glutamine, 0.6% glucose, 9.6 μg/ml putrescine, 6.3 ng/ml progesterone, 5.2 ng/ml sodium selenite, 0.02 mg/ml insulin, 0.1 mg/ml transferrin, 2 μg/ml heparin (all from Sigma-Aldrich, Rehovot, Israel), fibroblast growth factor-2 (human recombinant, 20 ng/ml), and epidermal growth factor (human recombinant, 20 ng/ml; both from Peprotech, Rocky Hill, N.J.)]. Spheres were passaged every 4-6 days and replated as single cells. Green fluorescent protein (GFP)-expressing NPCs were obtained as previously described (Pluchino et al., 2003). (xxvi) Primary microglial culture. Brains from neonatal (P0-P1) C57B1/6J mice were stripped of their meninges and minced with scissors under a dissecting microscope (Zeiss, Stemi DV4, Germany) in Leibovitz-15 medium (Biological Industries, Kibbutz Beit Ha-Emek, Israel). […] The cell suspension was washed in culture medium for glial cells [DMEM supplemented with 10% fetal calf serum (FCS; Sigma-Aldrich, Rehovot), L-glutamine (1 mM), sodium pyruvate (1 mM), penicillin (100 U/ml), and streptomycin ([…])] and cultured at 37° C./5% CO2 in 75-cm^2 Falcon tissue-culture flasks (BD Biosciences) coated with poly-D-lysine (PDL) (10 mg/ml; Sigma-Aldrich, Rehovot) in borate buffer (2.37 g borax and 1.55 g boric acid dissolved in 500 ml sterile water, pH 8.4) for 1 h, then rinsed thoroughly with sterile, glass-distilled water. Half of the medium was changed after 6 h in culture and every 2nd day thereafter, starting on day 2, for a total culture time of 10-14 days. […]

Substance: IFN-γ: recombinant interferon-γ
- neurogenesis (GFP+/βIIIT+ cells) from NPCs co-cultured with treated microglia: increase in numbers of GFP^+/βIIIT^+ cells was dramatic
